Data set [1] is described as follows: Biodistribution of radiotracers in normal mice. The format is in vivo, mouse. The note with it: normal male mice. The protocol:
Normal CD-1 male mice were injected via the tail vein with 35 μCi of [^68Ga] radiotracers (0.2 nmole of ligand). […] All organs were removed and blood was also collected. Each organ was weighed, and the tissue radioactivity was measured with an automated gamma counter (Wizard, Perkin Elmer). The % ID/g was calculated by comparison with samples of a standard dilution of the initial dose. All measurements were corrected for decay.

Data set [2] concerns LNCaP (left shoulder) and PC-3 (right shoulder) tumor bearing nude mouse. The data set is described as follows: Small animal PET imaging with [68Ga]1a and [68Ga]4a. The format is in vivo. The note with it: 60 to 75 min after i.v. injection. The protocol:
Male athymic mice (CD-1 nude, 5-6 weeks old) were obtained from Charles River, and were allowed to acclimatize at the vivarium for 1 week prior to implanting tumors. Mice were provided with food and water ad libitum. LNCaP tumors were induced on the left shoulder by sub-cutaneous (s.c.) injection of 5.0×10^6 cells in a 200 μL cell suspension of a 1:1 v/v mixture of media with reconstituted basement membrane (BD Matrigel™, Collaborative Biomedical Products Inc., Bedford, Mass.). Similarly, PC-3 tumors were induced on the right shoulder by s.c. injection of 2.0×10^6 cells. Palpable LNCaP tumors developed after a period of 4-5 weeks.
Dynamic small animal PET (APET) imaging studies of LNCaP (left shoulder) and PC-3 (right shoulder) tumor bearing nude mouse were performed with [^68Ga]1a and [^68Ga]4a. PET imaging studies were performed on a Phillips Mosaic small animal PET scanner, which has an imaging field of view of 11.5 cm. Under isoflurane anesthesia (1-2%, 1 L/min oxygen), the tumor-bearing nude mouse was injected with 0.5 mCi activity by an intravenous injection into the lateral tail vein. Data acquisition began at 30 min after the injection. Dynamic scans were conducted over a period of 1 h (5 min/frame; image voxel size 0.5 mm^3). Mouse was visually monitored for breathing, and a heating pad was used to maintain body temperature throughout the entire procedure. Images were reconstructed and a region of interest (ROI) analysis was performed using AMIDE software (http://amide.sourceforge.net/).
Representative animal PET images of LNCaP xenograft mice between 60 to 75 min after i.v. injection of [^68Ga]1a, and [^68Ga]4a are shown in FIGS. 3A-3F. […] FIGS. 3A-3F show sagittal, transaxial and coronal sections of APET images of nude mouse with LNCaP tumor at left shoulder and PC-3 tumor at right shoulder between 60 to 75 min post i.v. injection of [^68Ga]1a (FIGS. 3A-3C) and [^68Ga]4a (FIG. 3D-3F).

For data set [3], the target named is T1, PSMA (Homo sapiens, UniProt Q04609).
T1 construct: 100 μL of freshly harvested PSMA cells; endogenous in cells; host or cells: 'PSMA cells' in the method
T1 sequence (Q04609 whole entry): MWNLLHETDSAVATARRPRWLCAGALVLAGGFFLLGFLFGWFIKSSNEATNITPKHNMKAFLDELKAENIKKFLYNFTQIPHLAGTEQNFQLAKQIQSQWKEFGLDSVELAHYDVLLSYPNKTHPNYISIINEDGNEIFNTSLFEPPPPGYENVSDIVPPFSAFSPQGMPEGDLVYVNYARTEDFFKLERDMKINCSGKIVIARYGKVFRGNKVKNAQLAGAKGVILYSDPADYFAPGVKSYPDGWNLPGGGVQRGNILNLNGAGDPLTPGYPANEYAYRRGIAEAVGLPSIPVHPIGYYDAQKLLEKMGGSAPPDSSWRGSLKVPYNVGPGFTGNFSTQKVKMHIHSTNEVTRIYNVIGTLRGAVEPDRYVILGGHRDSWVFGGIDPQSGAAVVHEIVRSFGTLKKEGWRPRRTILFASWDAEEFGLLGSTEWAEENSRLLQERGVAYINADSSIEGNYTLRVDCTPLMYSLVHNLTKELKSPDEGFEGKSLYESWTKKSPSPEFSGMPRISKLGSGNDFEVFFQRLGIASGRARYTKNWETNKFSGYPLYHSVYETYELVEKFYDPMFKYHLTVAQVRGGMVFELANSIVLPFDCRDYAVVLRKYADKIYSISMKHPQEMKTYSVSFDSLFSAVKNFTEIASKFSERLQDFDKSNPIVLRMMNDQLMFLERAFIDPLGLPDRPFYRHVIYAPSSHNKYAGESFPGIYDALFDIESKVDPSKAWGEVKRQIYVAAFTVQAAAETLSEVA
The data set is described as follows: In vitro binding signals of 68Ga labeled ligands in LNCaP tumor homogenates. The settings on record: Ga-68 radiolabeled ligands; for Total binding (TB): 37° C. 60 min; for Nonspecific binding (NSB): with 1a (PSMA11) 10 μM.

For data set [4], the target named is T1, PSMA. The data set can be described thus: In vitro competitive binding assay to determine IC50 to PSMA. The note with it: LNCaP cells, [125I]MIP-1095 radioligand, 37° C. 1 h, mean±SD (n=4); read-out: PSMA binding affinities of cold ligands, IC50. The protocol:
In Vitro Competitive Binding Assay to Determine IC50 to PSMA
In order to determine the binding affinity, in vitro competitive binding assays were performed. The LNCaP cells were incubated with 150,000 cpm of [^125I]MIP-1095 in the presence of 10 different concentrations of competing drugs. After incubation at 37° C. for 1 h, the bound and free radioactivity were separated by vacuum filtration through GF/B filter paper using a Brandel M-24R cell harvester followed by washing twice. Non-specific binding was defined with 10 μM PMPA. The cell bound radioactivity was measured with a gamma counter, 2470 Wizard^2 (Perkin-Elmer, IL). The IC50 values were calculated by fitting the data using a nonlinear regression algorithm (GraphPad Software).
The PSMA binding affinities were determined in a competitive binding assay using LNCaP human prostate carcinoma cells and the known high affinity PSMA ligand, [^125I]MIP-1095 as the radioligand. Data are expressed as mean±SD (n=4).

Regarding `O=C(O)CCc1ccc(O)c(CN(CCN(CC(=O)O)Cc2cc(CCC(=O)NCCCCCC(=O)NCCCC[C@H](NC(=O)N[C@@H](CCC(=O)O)C(=O)O)C(=O)O)ccc2O)CC(=O)O)n1` [[^68Ga]4a, metal not drawn], in data set [1] (2 min), the “Biodistribution: Blood” value was 8.59 ± 0.82 % dose/g, the “Biodistribution: Bone” value is 2.33 ± 0.21 % dose/g, the “Biodistribution: Brain” value amounted to 0.27 ± 0.04 % dose/g and the “Biodistribution: Heart” value came to 3.62 ± 0.34 % dose/g. Moreover, in data set [1] (2 min), the “Biodistribution: Kidney” value is 60.7 ± 2.89 % dose/g, the “Biodistribution: Liver” value turned out to be 2.22 ± 0.23 % dose/g, the “Biodistribution: Lung” value came out at 5.45 ± 0.44 % dose/g and the “Biodistribution: Muscle” value is given as 2.68 ± 0.30 % dose/g. For the same compound, in data set [1] (2 min), the “Biodistribution: Pancreas” value is given as 2.35 ± 0.12 % dose/g, the “Biodistribution: Skin” value stood at 2.84 ± 0.19 % dose/g and the “Biodistribution: Spleen” value worked out at 3.64 ± 0.16 % dose/g. Further, in data set [1] (30 min), the “Biodistribution: Blood” value is on record as 0.95 ± 0.33 % dose/g, the “Biodistribution: Bone” value was 0.37 ± 0.10 % dose/g, the “Biodistribution: Brain” value was determined as 0.04 ± 0.01 % dose/g and the “Biodistribution: Heart” value is reported as 0.56 ± 0.21 % dose/g. Also, in data set [1] (30 min), the “Biodistribution: Kidney” value amounted to 148 ± 5.73 % dose/g, the “Biodistribution: Liver” value is recorded as 0.39 ± 0.12 % dose/g, the “Biodistribution: Lung” value is listed as 1.55 ± 0.30 % dose/g and the “Biodistribution: Muscle” value is reported as 0.61 ± 0.10 % dose/g. Further, in data set [1] (30 min), the “Biodistribution: Pancreas” value came to 0.89 ± 0.12 % dose/g, the “Biodistribution: Skin” value is listed as 0.99 ± 0.16 % dose/g and the “Biodistribution: Spleen” value amounted to 3.51 ± 1.69 % dose/g. In addition, in data set [1] (60 min), the “Biodistribution: Blood” value was 0.30 ± 0.03 % dose/g, the “Biodistribution: Bone” value was found to be 0.24 ± 0.02 % dose/g, the “Biodistribution: Brain” value was 0.03 ± 0.00 % dose/g and the “Biodistribution: Heart” value was 0.31 ± 0.14 % dose/g. In data set [1] (60 min), the “Biodistribution: Kidney” value is given as 181 ± 26.81 % dose/g, the “Biodistribution: Liver” value is on record as 0.23 ± 0.01 % dose/g, the “Biodistribution: Lung” value amounted to 1.18 ± 0.14 % dose/g and the “Biodistribution: Muscle” value is 0.35 ± 0.07 % dose/g. Besides, in data set [1] (60 min), the “Biodistribution: Pancreas” value was 1.09 ± 0.27 % dose/g, the “Biodistribution: Skin” value is 0.45 ± 0.07 % dose/g and the “Biodistribution: Spleen” value amounted to 2.83 ± 1.49 % dose/g. In data set [1] (120 min), the “Biodistribution: Blood” value was 0.20 ± 0.10 % dose/g, the “Biodistribution: Bone” value was determined as 0.23 ± 0.06 % dose/g, the “Biodistribution: Brain” value is listed as 0.02 ± 0.00 % dose/g and the “Biodistribution: Heart” value is 0.21 ± 0.03 % dose/g. Further, in data set [1] (120 min), the “Biodistribution: Kidney” value amounted to 128 ± 25.0 % dose/g, the “Biodistribution: Liver” value is given as 0.18 ± 0.05 % dose/g, the “Biodistribution: Lung” value is recorded as 0.83 ± 0.21 % dose/g and the “Biodistribution: Muscle” value stood at 0.20 ± 0.03 % dose/g. Also, in data set [1] (120 min), the “Biodistribution: Pancreas” value amounted to 1.02 ± 0.26 % dose/g, the “Biodistribution: Skin” value is 0.30 ± 0.02 % dose/g and the “Biodistribution: Spleen” value was 2.83 ± 1.25 % dose/g. In addition, in data set [2], the “LNCaP tumor visualization in PET images, in words” value is “clearly visualized” and the “PC-3 (PSMA negative) tumor uptake in PET images, in words” value was “did not show any uptakes”.

As usually defined, the IC50 is the concentration that inhibits the measured activity by half. Turning to `O=C(O)CC[C@H](NC(=O)N[C@@H](CCCCNC(=O)CCCCCNC(=O)CCc1ccc(O)c(CN(CCN(CC(=O)O)Cc2cc(CCC(=O)NCC(=O)O)ccc2O)CC(=O)O)c1)C(=O)O)C(=O)O` [Compound 1c, (3S,7S)-22-(3-(((Carboxymethyl)(2-((carboxymethyl)(5-(3-((carboxymethyl)amino)-3-oxopropyl)-2-hydroxybenzyl)amino)ethyl)amino)methyl)-4-hydroxyphenyl)-5,13,20-trioxo-4,6,12,19-tetraazadocosane-1,3,7-tricarboxylic acid], at PSMA [3], the “Specific binding (SB) SB = TB − NSB” value is recorded as 11.8, the “Total binding (TB)” value was 13.4 and the “Nonspecific binding (NSB)” value is listed as 1.6. For the same compound, at PSMA [4], the half-maximal inhibitory concentration (IC50) was found to be 25.6 ± 9.4 nM.

For `O=C(O)CCc1ccc(O)c(CN(CCN(CC(=O)O)Cc2nc(CCC(=O)NCCCCCC(=O)NCCCC[C@H](NC(=O)N[C@@H](CCC(=O)O)C(=O)O)C(=O)O)ccc2O)CC(=O)O)c1` [Compound 4b, (3S,7S)-22-(6-(((2-((5-(2-Carboxyethyl)-2-hydroxybenzyl)(carboxymethyl)amino)ethyl) (carboxymethyl)amino)methyl)-5-hydroxypyridin-2-yl)-5,13,20-trioxo-4,6,12,19-tetraazadocosane-1,3,7-tricarboxylic acid], at PSMA [3], the “Specific binding (SB) SB = TB − NSB” value is 8.8, the “Total binding (TB)” value is 10.3 and the “Nonspecific binding (NSB)” value came to 1.5. The half-maximal inhibitory concentration (IC50) at PSMA [4] stood at 40.5 ± 20.5 nM.

For the origin of these results see patent US10688200B2, “Urea-based prostate specific membrane antigen (PSMA) inhibitors for imaging and therapy” (Five Eleven Pharma Inc., priority 2015, dated 2020).
